From US20230364032A1, “USE OF 2-HOBA TO TREAT ATHEROSCLEROSIS” (Vanderbilt University, priority 2020, published 2023)
Values joined by “and” are separate entries in the source; they are usually repeats but may differ in a detail not shown here. Equal entries are not always repeated. “Also recorded” adds a separate entry of the source.

Legend:
[1] = 2-HOBA and 4-HOBA levels in plasma and tissues of C57BL/6J mice after intraperitoneal injection (LC/MS); type: in vivo, mouse; details: for liver, spleen, and kidney levels of 2-HOBA versus 4-HOBA: 30 min after intraperitoneal injection
Experimental: FIG. 12A-12D show the levels of 2-HOBA or 4-HOBA in plasma and tissues from C57BL/6J mice. A. Plasma samples were collected from female C57BL/6J mice on a chow diet after intraperitoneal injection of 1 mg 2-HOBA (n=3) or 1 mg 4-HOBA (n=3). *p<0.01, Student t test. B-D. Levels of 2-HOBA and 4-HOBA in liver (B), spleen (C), and kidney (D) of WT mice 30 min after intraperitoneal injection. (Mean±SEM shown for each, N.S. Student t test). The levels of 2-HOBA or 4-HOBA were measured in the plasma and tissues using LC/MS as described in the Methods.
(§1) Measurement of 2-HOBA and 4-HOBA was performed by LC/MS after derivatization with phenylisothiocyanate (PITC), and using [^2H4]-2-HOBA as an internal standard as previously described for 2-HOBA^71 (See FIG. 23). For these assays, the Waters Xevo-TQ-Smicro triple quadrupole mass spectrometer operating in positive ion multiple reaction monitoring (MRM) mode monitored the following transitions: for PITC-2-HOBA or PITC-4-HOBA, m/z 259→107@20 eV (quantifier transition) and m/z 259→153 @20 eV (qualifier transition); for PITC-[^2H4]2-HOBA m/z 263 →107@20 eV (quantifier transition), m/z 263→111 @20 eV (qualifier transition). Abundance for PITC-2-HOBA was calculated based on the ratio of peak area versus that of PITC-[^2H4]2-HOBA. Because the transition reactions for PITC-4-HOBA are less efficient than for PITC-2-HOBA, the ratio of peak areas for PITC-4-HOBA/PITC-[^2l H4]2-HOBA was multiplied by the correction factors 3.9 and 5.7 when using the m/z 107 and m/z 153 transition, respectively (See FIG. 24).

[2] = 2-HOBA and 4-HOBA levels in plasma and tissues of Ldlr−/− mice (LC/MS); type: in vivo; details: for concentration at 16 weeks: Ldlr−/− on C57BL/6 background, mouse, plasma, oral, 1 g/L in drinking water, male Ldlr−/− mice after 16 weeks of treatment with 1 g/L of water; for levels in the aorta and heart / plasma levels of 2-HOBA versus 4-HOBA: male Ldlr−/− mice; for levels in the aorta and heart: 30 min after oral gavage; for plasma levels of 2-HOBA versus 4-HOBA: 30 min after oral gavage of 5 mg
Experimental: FIG. 11A-11C show the concentration of 2-HOBA or 4-HOBA was measured in plasma and tissues from Ldlr^−/− mice. A. Eight week old male Ldlr^−/− mice were fed WD for 16 weeks and were continuously treated with water containing either 2-HOBA (n=9) or 4-HOBA (n=6). Plasma was collected 30 min after oral gavage of mice with either 2-HOBA or 4-HOBA (5 mg each mouse). (Mean±SEM shown for each, p=0.388 Mann-Whitney Test.) B-C. Levels of HOBA were measured in the aorta and heart of male Ldlr^−/− mice consuming a chow diet 30 min after oral gavage of 2-HOBA or 4-HOBA (5 mg each mouse). (Mean±SEM shown for each, N.S. Student t test). The levels of 2-HOBA or 4-HOBA were measured in the plasma and tissues using LC/MS as described in the Methods.
(§2) Ldlr^−/− and WT on C57BL/6 background mice were obtained from the Jackson Laboratory. Animal protocols were performed according to the regulations of Vanderbilt University's Institutional Animal Care and Usage Committee. Mice were maintained on chow or a Western-type diet containing 21% milk fat and 0.15% cholesterol (Teklad). Eight week old, female Ldlr^−/− mice on a chow diet were pretreated with vehicle alone (Water) or containing either 1 g/L of 4-HOBA or 1 g/L of 2-HOBA. 4-HOBA (as hydrochloride salt) was synthesized as previously described^21. 2-HOBA (as the acetate salt, CAS 1206675-01-5) was manufactured by TSI Co., Ltd. (Missoula, MT) and obtained from Metabolic Technologies, Inc., Ames, IA^24. A commercial production lot was used (Lot 16120312), and the purity of the commercial lot was verified to be >99% via HPLC and NMR spectroscopy^24. After two weeks, the mice continued to receive these treatments but were switched to a western diet for 16 weeks to induce hypercholesterolemia and atherosclerosis. Similarly, 12 week-old male Ldlr^−/− mice were pretreated with vehicle alone (water) or containing 1 g/L of 2-HOBA for two weeks and were then switched to a western diet for 16 weeks to induce hypercholesterolemia and atherosclerosis, while continuing the treatment with 2-HOBA or water alone^58, 59, 60 Based on the average weight and daily consumption of water per mouse the estimated daily dosage with 1 g/L of 2-HOBA is 200 mg/Kg. […] Eight week old, male Ldlr^−/− mice were fed a western diet for 16 weeks and were continuously treated with water containing either 2-HOBA or 4-HOBA. Urine samples were collected using metabolic cages (2 mice in one cage) during 18 h after oral gavage with either 2-HOBA or 4-HOBA (5 mg each mouse).
as §1

[3] = tested on: hypercholesterolemic Ldlr−/− mice; assay: Atherosclerosis in western-diet-fed Ldlr−/− mice (Oil-Red-O proximal aorta sections and en face aorta); type: in vivo, mouse; details: western diet 16 weeks; for effect on atherosclerosis: hypercholesterolemic Ldlr−/− mice
Experimental: as §2
The extent of atherosclerosis was examined both Oil-Red-O-stained cross-sections of the proximal aorta and by en face analysis^30. Briefly, cryosections of 10-micron thickness were cut from the region of the proximal aorta starting from the end of the aortic sinus and for 300 μm distally, according to the method of Paigen et al.^62. The Oil red-O staining of 15 serial sections from the root to ascending aortic region were used to quantify the Oil red-O-positive staining area per mouse. The mean from the 15 serial sections was applied for the aortic root atherosclerotic lesion size per mouse using the KS300 imaging system (Kontron Elektronik GmbH) as described^63, 64, 65. All other stains were done using sections that were 40 to 60 μm distal of the aortic sinus. For each mouse, 4 sections were stained and quantitation was done on the entire cross section of all 4 sections. For immunofluorescence staining, 5 μm cross-sections of the proximal aorta were fixed in cold acetone (Sigma), blocked in Background Buster (Innovex), incubated with indicated primary antibodies (MDA and CD68) at 4° C. for overnight. After incubation with fluorescent labeled secondary antibodies at 37 C for 1 hour, the nucleus was counterstained with Hoechst. Images were captured with a fluorescence microscope (Olympus IX81) and SlideBook 6 (Intelligent-Image) software and quantitated using ImageJ software (NIH)^66.

[4] = previous in vitro studies; cited from earlier work
[5] = male Ldlr−/− mice, 1 g/L, compared to water

Compound | liver, spleen, and kidney levels of 2-HOBA versus 4-HOBA [1] | concentration at 16 weeks [2] | levels in the aorta and heart [2] | plasma levels of 2-HOBA versus 4-HOBA [2] | reduction of extent of proximal aortic atherosclerosis ([3]; female Ldlr−/− mice, 1 g/L in water, compared to 4-HOBA) | reduction of extent of proximal aortic atherosclerosis ([3]; female Ldlr−/− mice, 1 g/L in water, compared to vehicle) | reduction of extent of aortic atherosclerosis, en face analysis ([3]; female Ldlr−/− mice, 1 g/L, compared to 4-HOBA) | reduction of extent of aortic atherosclerosis, en face analysis ([3]; female Ldlr−/− mice, 1 g/L, compared to vehicle) | effect on atherosclerosis ([3]; 1 g/L) | reduction of extent of proximal aortic atherosclerosis [3, 5] | reduction of extent of whole aorta atherosclerosis [3, 5] | reactivity with lipid dicarbonyls / dicarbonyl scavenging [4] | clearance, 4-HOBA vs 2-HOBA ([1]; after intraperitoneal injection) | plasma levels after intraperitoneal injection, 4-HOBA vs 2-HOBA ([1]; female C57BL/6J mice, 1 mg i.p.)
NCc1ccccc1O [2-HOBA, 2-hydroxybenzylamine] | not significantly different | 469 ± 38 ng/mL | similar | not significantly different | 31.5% | 31% and 31.1% | 59.1% | 60% and 60.3% | attenuates atherosclerosis; also recorded: reduces atherosclerotic lesions | 37% | 45% | rapidly reacts | – | –
NCc1ccc(O)cc1 [4-HOBA, 4-hydroxybenzylamine, reference compound] | not significantly different | 25 ± 3 ng/mL | similar | not significantly different | – | – | – | – | not atheroprotective | – | – | poor reactivity; also recorded: ineffective | more rapid clearance; also recorded: cleared more rapidly | slightly higher initially
